The data set is described as follows: solvent given as SMILES.
The mark [1] stands for this setting: in O=P(c1ccccc1)(c1ccccc1)c1ccccc1Oc1ccccc1P(=O)(c1ccccc1)c1ccccc1.

Turning to `CC/[NH+]=c1\cc2oc3cc(NCCN)c4ccccc4c3nc-2cc1C`, the emission maximum by setting is: (in CCO) 647 nm; (in O) 647 nm.
Under “in CCO”, `COc1cc2c(cc1F)c(=O)c1cc(F)c(OC)cc1n2-c1ccccc1` had an emission maximum of 424 nm.
As to `COc1ccc(N(c2ccc(OC)cc2)c2ccc(-c3ccc(-c4ccc(-c5cccs5)c5nsnc45)s3)cc2)cc1`, the emission maximum (in ClC(Cl)Cl) worked out at 705 nm.
In turn, `CCOC(=O)c1c(-c2cc3ccc(OCC=C(C)C)cc3oc2=O)nn(-c2cccc(C)c2)c1C(=O)OCC` gave an emission maximum (in ClCCl) of 425 nm.
As to `CC1(C)c2ccccc2N(c2ccc3c(c2)c2ccccc2n2c4ccccc4nc32)c2ccccc21`, the emission maximum (in Cc1ccccc1) was 437 nm and the emission maximum under setting [1] is 447.06 nm.
`N#CC(C#N)=Cc1ccc2nc(C#Cc3ccc(N(c4ccccc4)c4ccccc4)cc3)sc2c1` showed an emission maximum (in Cc1ccccc1) of 535 nm.
Compound `[O-][n+]1c(/C=C/c2ccc(/C=C/c3ccccc3)cc2)nc(N2CCOCC2)c2c1CCCC2` registered an emission maximum (in ClCCl) of 531 nm.
With `CCn1c2ccccc2c2ccc(C#N)cc21`, the emission maximum (in C1CCCCC1) amounted to 373 nm.
In the case of `O=c1oc2cc3c(cc2cc1/C=C/c1ccccc1)OCO3`, the emission maximum (in CC#N) was determined as 469 nm.
As for `CSc1sc(C(N)=O)c2nnn(C)c(=O)c12`, the emission maximum came to 496 nm (in C1CCOC1); 505 nm (in CC#N); 519 nm (in CCO); 514 nm (in CN(C)C=O); 521 nm (in CO); 527 nm (in CS(C)=O).
Compound `CCOC(=O)CCCCCn1c2ccc(N)cc2c(=O)c2cc(N)ccc21` showed an emission maximum (in O) of 547 nm.
In turn, `CCCCCCCCn1c2ccc(/C=C/c3ccc(N(c4ccccc4)c4ccccc4)cc3)cc2c2cc3c(cc21)c1cc(/C=C/c2ccc(N(c4ccccc4)c4ccccc4)cc2)ccc1n3CCCCCCCC` showed an emission maximum (in Cc1ccccc1) of 453 nm.
Regarding `c1cc2ccc1-c1ccc(cc1)-c1sc(c3c1OCCO3)-c1ccc(cc1)-c1ccc(cc1)-c1sc(c3c1OCCO3)-c1ccc(cc1)-c1ccc(cc1)-c1sc-2c2c1OCCO2`, the emission maximum (in C1CCOC1) is on record as 555 nm.
Take `Cc1cccc(C)c1N1C(c2ccccc2)=Cc2ccc3ccccc3[n+]2[B-]1(F)F`: the emission maximum (in ClCCl) turned out to be 468 nm.
`c1ccc2cc3c(cc2c1)oc1c2oc4cc5ccccc5cc4c2c2ccccc2c31` returned an emission maximum (in C1CCOC1) of 399 nm.
`COc1ccc(-c2ccc(-c3cc(-c4ccccn4)nc(-c4ccccn4)c3)cc2)cc1` had an emission maximum (in ClCCl) of 403 nm.
`N#Cc1c(N2CCCCC2)cc(-c2ccc3ccccc3c2)c2c1Cc1ccccc1-2` came in with an emission maximum (in C1CCOC1) of 465 nm.
Turning to `Oc1cccc2ccccc12`, where the note is “in C1CCCCC1”, the emission maximum is on record as 344.23 nm.
For the setting “in Cc1ccccc1”, `N#Cc1c(-n2c3ccc(Br)cc3c3cc(Br)ccc32)c(-n2c3ccc(Br)cc3c3cc(Br)ccc32)c(C#N)c(-n2c3ccc(Br)cc3c3cc(Br)ccc32)c1-n1c2ccc(Br)cc2c2cc(Br)ccc21` had an emission maximum of 546 nm.
For the compound `CN(C)c1ccc(/C=C/c2nc(/C=C/c3ccc(N(c4ccccc4)c4ccccc4)cc3)cc(/C=C/c3ccc(N(c4ccccc4)c4ccccc4)cc3)n2)cc1`, the emission maximum came out at 512 nm (in C1CCOC1); 574 nm (in CC#N); 552 nm (in CC(C)=O); 460 nm (in CCCCCCC); 577 nm (in CS(C)=O); 495 nm (in Cc1ccccc1). In addition, the emission maximum (in ClCCl) is listed as 577 nm.
Under “in O”, `COc1ccccc1C1=C2C=CC(=[N+](C)C)C=C2[Si](C)(C)c2cc(N(C)C)ccc21` had an emission maximum of 663 nm.
Consider `COC(=O)c1ccc(/C=C2\C=C(c3ccc(C#N)cc3)N(CC(C)C)C2=O)cc1`, for which the emission maximum (in C1COCCO1) was 589 nm.
As for `Cc1cc(=O)oc2cc3c(cc12)c1c2ccccc2c2ccccc2c1c1c2ccccc2c2ccccc2c31`, the emission maximum (in ClC(Cl)Cl) is 536 nm.
Still for that read-out and setting: the same measure for `F[B-]1(F)OC(c2ccc(N3CCCCC3)cc2)=Cc2cccc[n+]21`: 499 nm.
Compound `N#Cc1c(N2CCCCC2)cc(-c2ccc(-c3ccccc3)s2)c2c1CCc1ccccc1-2` gave an emission maximum (in C1CCOC1) of 515 nm.
For `Cc1cccc2c3ccccc3n(-c3ccc(-c4c(-c5ccccc5)c(C#N)c(C#N)c(-c5ccccc5)c4-c4ccc(-n5c6ccccc6c6cccc(C)c65)cc4)cc3)c12`, the emission maximum is, setting by setting: (in Cc1ccccc1) 440 nm; (in O=P(c1ccccc1)(c1ccccc1)c1ccc2oc3ccc(P(=O)(c4ccccc4)c4ccccc4)cc3c2c1) 450 nm.
Turning to `COc1ccc(/C=C/C2=NC(=C\c3ccncc3)/C(=O)N2C)cc1`, the emission maximum is on record as 564 nm (in C1COCCO1); 574 nm (in CC#N); 570 nm (in CCO); 566 nm (in CCOC(C)=O); 577 nm (in O).
Take `COc1ccc2cc(/C=C/C3=[O+][B-](F)(F)OC(/C=C/c4ccc5cc(OC)ccc5c4)=C3c3ccccc3)ccc2c1`: the emission maximum (in ClCCl) is listed as 600 nm.
The compound `C[Si](C)(C)C#Cc1cc(C#C[Si](C)(C)C)c2ccc3c(C(=O)c4ccccc4)cc(C#C[Si](C)(C)C)c4ccc1c2c43` returned an emission maximum (in ClCCl) of 467 nm.
`COc1ccc2cc(-c3ccc(C(F)(F)F)cc3)oc(=O)c2c1`: the emission maximum (in CCCCCC) was determined as 397 nm; the emission maximum (in CCCCCCCCO) is on record as 410 nm; the emission maximum (in CCCCO) was 411 nm; the emission maximum (in CCCO) was 410 nm; the emission maximum (in CCO) was found to be 412 nm; the emission maximum (in CCOC(C)=O) was determined as 404 nm. Besides, the emission maximum came to 411 nm (in CN(C)C=O), 413 nm (in CO) and 409 nm (in ClC(Cl)Cl).
As for `CCN(CC)c1ccc2cc(/C=C/c3ccccc3)c(=O)oc2c1`, the emission maximum (in CC#N) is 477 nm.
As for `Cc1cccc(Nc2ccccc2C(=O)O)c1C`, the emission maximum reads like this: (in C1CCCCC1) 438 nm; (in C1CCOC1) 438 nm; (in C1COCCO1) 437 nm; (in CC#N) 398 nm; (in CCOC(C)=O) 439 nm; (in CN(C)C=O) 385 nm. The emission maximum by setting is: (in CO) 390 nm; (in ClC(Cl)Cl) 442 nm.
For the compound `F[B-]1(F)OC(c2ccc(N3CCCC3)cc2)=Cc2cccc[n+]21`, where the note is “in ClC(Cl)Cl”, the emission maximum was 496 nm.
Take `Brc1ccc(-c2nc(-c3ccc(C#Cc4ccc(-n5c6ccccc6c6ccccc65)cc4)cc3)nc(-c3ccc(C#Cc4ccc(-n5c6ccccc6c6ccccc65)cc4)cc3)n2)cc1`: the emission maximum reads like this: (in C1CCOC1) 465 nm; (in CC#N) 563 nm; (in CCCCCC) 411 nm; (in Cc1ccccc1) 432 nm; (in ClCCl) 498 nm.
With `CC1(C)CCc2c(c3ccccc3c3nc4ccccc4nc23)O1`, the emission maximum runs as follows: (in C1CCCCC1) 459.98 nm; (in C1CCOC1) 483.09 nm; (in CN(C)C=O) 501 nm; (in CO) 510.99 nm; (in ClC(Cl)Cl) 490.92 nm; (in c1ccccc1) 471.03 nm.
Turning to `CCn1c(-c2ccc(-c3cccc4ccccc34)cc2)c(-c2ccc3ccccc3c2)c(-c2ccc3ccccc3c2)c1-c1ccc(-c2cccc3ccccc23)cc1`, for the setting “in CCOC(C)=O”, the emission maximum is given as 429 nm.
Where the note is “in ClCCl”, `COc1ccc(C#Cc2c3ccccc3c(C#Cc3ccc(OC)cc3)c3cc4ccccc4cc23)cc1` yielded an emission maximum of 576 nm.
In the case of `C(=C\c1c[nH]cn1)/c1cc[n+]2ccc(/C=C/c3c[nH]cn3)cc2c1`, the emission maximum (in CO) stood at 527 nm.
For the compound `CCCCn1c2ccccc2c2cc(C#Cc3ccc4ccc5cccc6ccc3c4c56)ccc21`, the emission maximum (in ClCCl) stood at 450 nm.
As for `CC(C)(C)c1ccc2c(c1)c1cc(C(C)(C)C)ccc1n2-c1ccc(-c2nc3cc(C#N)c(C#N)cc3nc2-c2ccc(-n3c4ccc(C(C)(C)C)cc4c4cc(C(C)(C)C)ccc43)cc2)cc1`, the emission maximum (in Cc1ccccc1) is recorded as 544 nm.
The compound `N#Cc1cc(C#N)c(-n2c3ccccc3c3cc(-c4cccc5c4c4ccccc4n5-c4cc(-n5c6ccccc6c6ccccc65)c(C#N)cc4C#N)ccc32)cc1-n1c2ccccc2c2ccccc21` gave an emission maximum under setting [1] of 448 nm.
`CN1C(=CC2=C([O-])C(=CC3=[N+](C)c4ccccc4C3(C)C)C2=C2C(=O)c3ccccc3C2=O)C(C)(C)c2ccccc21`: where the note is “in ClC(Cl)Cl”, the emission maximum stood at 699 nm.
Take `CCOC(=O)CSc1nc2c(c(C#N)c1C#N)CCCCCC2`: the emission maximum (in c1ccccc1) was 408 nm.
For `CCCCc1cc2cccc[n+]2[b-]2c(-c3cccc4[b-]3[n+]3ccccc3cc4CCCC)cccc21`, the emission maximum (in C1CCCCC1) was 451 nm.
Take `CCCCOC(=O)c1cc(Cl)c2c3c(Cl)cc4c5c(cc(Cl)c(c6c(Oc7ccc(C(=O)OC)cc7)cc(C(=O)OCCCC)c1c26)c53)C(=O)N(c1c(C(C)C)cccc1C(C)C)C4=O`: under “in Cc1ccccc1”, the emission maximum turned out to be 560 nm.
Regarding `C#CCn1c2ccccc2c2cc(/C=C/C3=[N+]4C(=C(c5ccc(I)cc5)c5c(C)cc(/C=C/c6ccc7c(c6)c6ccccc6n7CC#C)n5[B-]4(F)F)C(C)=C3)ccc21`, the emission maximum was determined as 688 nm (in CC#N), 703 nm (in CS(C)=O) and 691 nm (in ClC(Cl)Cl).
Consider `CCOC(=O)CN1C(=O)C2=C(c3ccc(C#N)cc3)N(CC(=O)OCC)C(=O)C2=C1c1ccc(C#N)cc1`, for which the emission maximum was 549 nm (in CC#N), 557 nm (in CS(C)=O) and 558 nm (in Cc1ccccc1).
Compound `O=P1(c2ccccc2)C(c2cc(C(F)(F)F)cc(C(F)(F)F)c2)=Cc2c3ccc4cccc5ccc(c6cc(-c7ccc(N(c8ccccc8)c8ccccc8)cc7)n1c26)c3c45` (stereo not drawn) showed an emission maximum (in C1CCCCC1) of 558 nm; an emission maximum (in C1CCOC1) of 620 nm; an emission maximum (in C1COCCO1) of 595 nm; an emission maximum (in CC#N) of 645 nm; an emission maximum (in CC(C)=O) of 635 nm; an emission maximum (in CO) of 636 nm. The compound further gave an emission maximum (in Cc1ccccc1) of 586 nm, an emission maximum (in ClC(Cl)Cl) of 603 nm and an emission maximum (in ClCCl) of 622 nm.
For `COc1ccc(/C=C/C2=C3CCc4ccccc4C3=[O+][B-](F)(F)O2)cc1`, under “in ClCCl”, the emission maximum turned out to be 515 nm.

Source of the values: the Deep4Chem optical property database.
